Source: the NIST ThermoML archive (doi:10.1021/je0503554)
Where “and” joins values, the source holds several entries; their conditions need not be identical. Equal entries are not always repeated. ± gives the expanded uncertainty stated by the source.

Assay: activity coefficient (dimensionless); of the first substance listed, at infinite dilution; xn = mol fraction of the nth substance listed
Settings: Liquid, Chromatography, x1 = 0

In the case of `CCCCCCC=O` [heptanal] + CCCCCC[n+]1ccn(C)c1.O=S(=O)([N-]S(=O)(=O)C(F)(F)F)C(F)(F)F, the activity coefficient (343.55 K) is reported as 1.11 ± 0.07, the activity coefficient (354.05 K) is reported as 1.07 ± 0.068 and the activity coefficient (364.45 K) is reported as 1.02 ± 0.064. The activity coefficient (374.95 K) was 0.97 ± 0.061, the activity coefficient (385.35 K) was 0.92 ± 0.058 and the activity coefficient (395.95 K) was 0.9 ± 0.057.
`CCCCCCC` [heptane] + CCCCCC[n+]1ccn(C)c1.O=S(=O)([N-]S(=O)(=O)C(F)(F)F)C(F)(F)F showed an activity coefficient (300.95 K) of 11.2 ± 0.76, an activity coefficient (312.25 K) of 10.4 ± 0.71 and an activity coefficient (322.85 K) of 9.69 ± 0.66. For the same compound, the activity coefficient (333.25 K) was 9.09 ± 0.62 and the activity coefficient (343.75 K) was 8.65 ± 0.59.
For `CCCCCCO` [hexan-1-ol] + CCCCCC[n+]1ccn(C)c1.O=S(=O)([N-]S(=O)(=O)C(F)(F)F)C(F)(F)F, the activity coefficient (354.05 K) was 2.18 ± 0.15, the activity coefficient (364.55 K) was 1.97 ± 0.13 and the activity coefficient (374.95 K) was 1.82 ± 0.12. The activity coefficient (385.45 K) was 1.67 ± 0.11 and the activity coefficient (395.95 K) was 1.56 ± 0.1.
`CCCCCC=O` [hexanal] + CCCCCC[n+]1ccn(C)c1.O=S(=O)([N-]S(=O)(=O)C(F)(F)F)C(F)(F)F showed an activity coefficient (333.15 K) of 1.2 ± 0.077, an activity coefficient (343.55 K) of 1.21 ± 0.078 and an activity coefficient (354.05 K) of 1.23 ± 0.079. It also gave an activity coefficient (364.45 K) of 1.24 ± 0.08 and an activity coefficient (374.95 K) of 1.26 ± 0.081.
For `CCCCCC` [hexane] + CCCCCC[n+]1ccn(C)c1.O=S(=O)([N-]S(=O)(=O)C(F)(F)F)C(F)(F)F, the activity coefficient (301.85 K) was 8.03 ± 0.55, the activity coefficient (312.25 K) was 7.65 ± 0.52 and the activity coefficient (322.85 K) was 7.41 ± 0.51. The activity coefficient (333.25 K) was 6.94 ± 0.47 and the activity coefficient (343.75 K) was 6.74 ± 0.46.
With `CO` [methanol] + CCCCCC[n+]1ccn(C)c1.O=S(=O)([N-]S(=O)(=O)C(F)(F)F)C(F)(F)F the activity coefficient (301.95 K) was 1.46 ± 0.1, the activity coefficient (312.45 K) was 1.34 ± 0.09 and the activity coefficient (323.05 K) was 1.22 ± 0.08. The activity coefficient (333.45 K) was 1.1 ± 0.07, the activity coefficient (343.95 K) was 0.99 ± 0.06 and the activity coefficient (354.45 K) was 0.93 ± 0.06.
With `CCCC(=O)OC` [methyl butanoate] + CCCCCC[n+]1ccn(C)c1.O=S(=O)([N-]S(=O)(=O)C(F)(F)F)C(F)(F)F the activity coefficient (322.75 K) was 0.868 ± 0.055, the activity coefficient (333.25 K) was 0.874 ± 0.056 and the activity coefficient (343.65 K) was 0.877 ± 0.056. For the same compound, the activity coefficient (354.15 K) was 0.884 ± 0.056.
`CCCCCCC(=O)OC` [methyl heptanoate] + CCCCCC[n+]1ccn(C)c1.O=S(=O)([N-]S(=O)(=O)C(F)(F)F)C(F)(F)F gave an activity coefficient (354.15 K) of 1.6 ± 0.11, an activity coefficient (364.65 K) of 1.52 ± 0.1 and an activity coefficient (375.15 K) of 1.44 ± 0.09. For the same compound, the activity coefficient (385.65 K) was 1.38 ± 0.09.
With `CCCCCC(=O)OC` [methyl hexanoate] + CCCCCC[n+]1ccn(C)c1.O=S(=O)([N-]S(=O)(=O)C(F)(F)F)C(F)(F)F the activity coefficient (343.65 K) was 1.39 ± 0.09, the activity coefficient (354.15 K) was 1.35 ± 0.09 and the activity coefficient (364.65 K) was 1.29 ± 0.08. It also gave an activity coefficient (375.15 K) of 1.25 ± 0.08 and an activity coefficient (385.65 K) of 1.2 ± 0.08.
`CCCCC(=O)OC` [methyl pentanoate] + CCCCCC[n+]1ccn(C)c1.O=S(=O)([N-]S(=O)(=O)C(F)(F)F)C(F)(F)F gave an activity coefficient (322.75 K) of 1.04 ± 0.07, an activity coefficient (333.25 K) of 1.03 ± 0.06 and an activity coefficient (343.65 K) of 1.01 ± 0.06. It also gave an activity coefficient (354.15 K) of 0.99 ± 0.06.
`CCC(=O)OC` [methyl propanoate] + CCCCCC[n+]1ccn(C)c1.O=S(=O)([N-]S(=O)(=O)C(F)(F)F)C(F)(F)F showed an activity coefficient (322.75 K) of 0.681 ± 0.046, an activity coefficient (333.25 K) of 0.683 ± 0.046 and an activity coefficient (343.65 K) of 0.685 ± 0.046. For the same compound, the activity coefficient (354.15 K) was 0.688 ± 0.046.
With `CCCCCCCCC` [nonane] + CCCCCC[n+]1ccn(C)c1.O=S(=O)([N-]S(=O)(=O)C(F)(F)F)C(F)(F)F the activity coefficient (307.05 K) was 21.4 ± 1.5, the activity coefficient (312.35 K) was 20.5 and 20.3 and the activity coefficient (322.85 K) was 18.9 and 18.6.
For `C=CCCCCCC` [oct-1-ene] + CCCCCC[n+]1ccn(C)c1.O=S(=O)([N-]S(=O)(=O)C(F)(F)F)C(F)(F)F, the activity coefficient (301.95 K) was 8.83 ± 0.6, the activity coefficient (312.45 K) was 8.43 ± 0.58 and the activity coefficient (322.95 K) was 8.08 ± 0.55. For the same compound, the activity coefficient (333.45 K) was 7.66 ± 0.52, the activity coefficient (343.95 K) was 7.37 ± 0.5 and the activity coefficient (354.35 K) was 7.16 ± 0.49.
With `CCCCCCCC=O` [octanal] + CCCCCC[n+]1ccn(C)c1.O=S(=O)([N-]S(=O)(=O)C(F)(F)F)C(F)(F)F the activity coefficient (354.05 K) was 1.9 ± 0.13, the activity coefficient (364.45 K) was 1.92 ± 0.13 and the activity coefficient (374.95 K) was 1.94 ± 0.13. For the same compound, the activity coefficient (385.45 K) was 1.96 ± 0.13 and the activity coefficient (395.95 K) was 1.97 ± 0.13.
